# Results published in patent publication US20110294794A1, “TREATMENT OF PROTEINOPATHIES USING A FARNESYL TRANSFERASE INHIBITOR” (Link Medicine Corporation, priority 2008, published 2011).
# “Also recorded” adds a separate entry of the source. Where two headings read alike, the source gives them in different places.
# What was measured:
# α-synuclein = test: Masliah D-line human WT α-synuclein transgenic mouse, α-synuclein immunoreactivity / ELISA; format: in vivo; conditions: for number of α-synuclein positive neurons: lower-dose trial (FIG. 2B); for levels of α-synuclein in the hippocampus / α-synuclein inclusions vs. transgenic animals administered vehicle alone: α-synuclein transgenic mice
# Protocol: Animals and treatments: Male and female human WT alpha-synuclein over-expressing transgenic mice^32 at 6 months of age were given vehicle (10% beta-cyclodextrin) or LNK-754-TS (0.09, 0.9 and 9 mg/kg) per oral gavage twice daily for 3 months or animals at 7 months of age were given vehicle (2.5% beta-cyclodextrin) or LNK-754-TS (2 mg/kg) once every three days for 3 months. Male and female TAU transgenic mice expressing TAU441 bearing the missense mutations V337M^50 and R406W under the control of the murine Thy-1 promoter with a CB6xC57BL/6 background were 5 months old at the time when the oral treatment for three months with LNK-754-TS (0.9 and 0.09 mg/kg) as well as vehicle (2.5% beta-cyclodextrin) was started. Female human APP/PS1 (APP (London V7171)/PS1(A246E)) over-expressing transgenic mice were treated with LNK-754-TS (0.9 mg/kg) or vehicle (2.5% beta-cyclodextrin) for 2 months or 12 days.
# Immunohistochemistry and quantification of stained cells: For evaluation of α-synuclein immunoreactivity (IR), 5 sagittal cryo-cut sections (10 μm slice thickness) from five different layers were used for counting of IR cells in the cortex and hippocampus. Brain sections were stained with a monoclonal human α-synuclein specific antibody (Alexis®; Cat# 804-258-L001; dilution 1:5), followed by a secondary Ab Cy 2-Goat Anti-Rat (Jackson ImmunoResearch®; dilution 1:200). IR positive cells were quantified using specialized image analysis software (Image Pro Plus, version 4.5.1.29). For Tau transgenic animals, 5 μm thick coronal paraffin sections were stained with the monoclonal mouse anti-human TAU-antibodies (AT180—1:100; HT—1:500) and visualized using an anti-mouse Cy3 secondary antibody (1:500, Jackson laboratories®). Images were evaluated with ImageProPlus (version 6.2) image analysis software. For APP/PS1 transgenic animals sagittal hemisections (40 μm) were collected and processed for Aβ immunohistochemistry using an 6E10 antibody, Thioflavin-S staining Primary antibodies were detected by the ABC method.
# ELISA quantification of α-Synuclein in the α-Synuclein transgenic animals: Brain homogenate was centrifuged and the supernatant saved as fraction F1. The pellet was washed then resuspended and saved as fraction F2. Plates (Nunc, 464718) were coated with SYN-1 (1:1000, BD Transduction Labs, 610787). Monomeric recombinant α-synuclein was included as an internal standard. Biotinylated antibody FL-140 (1:300, Santa Cruz Biotechnology, sc-10717-B) and ExtrAvidin-Alkaline phosphatase (3:5000, Sigma, E2636) was added followed by pNPP substrate solution (Sigma, N1891). Raw absorbance (405 nm) was then normalized to the total protein concentration of each sample. In the APP/PS1 transgenic animal, brains were homogenized and the supernatant, Faction 1, was separated from the pellet. The pellets were further processed with addition of NP40 and Triton X-100. The supernatant was separated from the pellet as the insoluble membrane, Fraction 2, and was dissolved in 8M Guanidine. To quantify the amount of human Aβ-40 and Aβ-42, ELISA kits were used (The Genetics Company, Zurich, Switzerland).
# In FIG. 2 is shown efficacy data for LNK-754-TS in the Masliah D-line transgenic α-synuclein mouse (an accepted model of synucleinopathies). Two trials are shown, the first (FIG. 2A) at higher doses of LNK-754-TS: 45 mg/kg and 9 mg/kg. […] The second trial (FIG. 2B) explores the low dose range for efficacy in the α-synuclein models. […]
# After dosing with LNK-754-TS for three months (twice daily at 0.09 mg/kg or 0.9 mg/kg), α-synuclein accumulation in the brain was analyzed by immunohistochemical (human specific α-synuclein immunoreactivity) and biochemical (α-synuclein ELISA) means. […]
# GGTase [1] = target: T1, GGTase (Homo sapiens, UniProt P49354+P53609); test: In vitro GGTase inhibition by LNK-754 (Table 5A); format: biochemical; conditions: general statement
# Excerpt: (§1) The selectivity of LNK-754 for FTase over GGTAse is shown below in Table 5A.
# GGTase [2] = test: In vitro GGTase inhibition by LNK-754 (Table 5A); format: biochemical
# Excerpt: as §1
# [3] = system: 3T3 H-ras (61L) xenograft tumor; conditions: continuous infusion, cited from earlier work
# [4] = Pharmacokinetics of Zarnestra in C57BL/6 mice, oral administration; format: in vivo, mouse; conditions: 5 mg/kg p.o. single dose
# Protocol: LLOQ: brain 4 ng/g; plasma 50 ng/ml.
# The pharmacokinetic profiles of LNK-754-TS and Zarnestra® were analyzed using methods known in the art. The results are shown in FIGS. 13-14 and the tables below.
# LC3 mRNA = LC3 mRNA (qPCR) in differentiated SH-SY5Y cells; format: cell-based, human; conditions: 100 nM, 72 hr
# Protocol: (§2) Cell culture and immunocytochemistry: SH-SY5Y cells were grown in DMEM medium supplemented with 10% FBS and 1% pen/strep at 37° C. and 5% CO2. Cells were differentiated with 10 μM retinoic acid for 48 hr, then treated with the either rapamycin (100 nM or 1 μM) or with 100 nM of either LNK-754-TS or Tipifarnib for 48-72 hr. Cells were then fixed with 4% paraformaldehyde and stained for LC3 (Novus biological, NB100-2331, dilution 1:800) followed by secondary Alexa-564 anti-Rabbit (A-11011).
# (§3) Quantitative real-time PCR: Gene expression profiles were done by qPCR on series of known autophagy genes. RNA was extracted with Tri-reagent (Sigma), and cDNAs generated using iScript (Biorad). qPCR analysis was carried out in a 96 well plate using an iCycler (BioRad, Hercules, Calif.), and iQ SYBR Green Supermix (Biorad) according to the manufacturer's specifications.
# Such increases in LC3 mRNA levels are associated in the literature with stimulation of macroautophagy. This supports the hypothesis that at doses as low as 1 nM in this in vitro system there is stimulation of autophagy in these cells.
# (§4) Autophagy was measured in a neuroblastoma cell culture system by three distinct approaches: quantitation of autophagy-related mRNA's, immunofluorescence microscopy of autophagosomes, and biochemical detection of the microtubule-associated protein 1 light chain 3 (LC3) a key protein that is required for autophagosome formation. Differentiated human neuroblastoma cells (SH-SY5Y) were treated for 72 hr with LNK-754-TS (0.01-100 nM), Zarnestra® (also referred to herein as tipifarnib) (100 nM) or rapamycin (1 μM).
# LC3 = test: Punctate LC3 immunostaining in SH-SY5Y cells; format: cell-based, human; conditions: 100 nM (FIG. 8b)
# Protocol: as §2, §4
# Atg1 = test: mRNA levels of autophagy-related genes (Atg1) in SH-SY5Y cells; format: cell-based, human; conditions: 100 nM (FIG. 8d)
# Protocol: as §3
# (§5) The mechanism of autophagy stimulation by LNK-754-TS appears distinct from that of the drug rapamycin. Rapamycin is a well-characterized autophagy stimulator that acts through inhibition of mTOR, a kinase involved in nutrient signaling and regulation of cell growth and survival. […] To further contrast the mechanism of autophagy stimulation by LNK-754-TS to that of rapamycin, a collection of mRNA transcripts of autophagy proteins were measured (FIG. 8d). Selected mRNAs from untreated SH-SY5Y cells were compared to mRNAs from cells treated with LNK-754-TS (100 nM), tipifarnib (100 nM), or rapamycin (1 μM).
# GGTase [5] = target: T1, GGTase; conditions: general statement; cited from earlier work
# LC3-II = LC3-II protein level (autophagic flux) in SH-SY5Y cells with or without bafilomycin A1; format: cell-based, human; conditions: bafilomycin A1 (10 nM) alone, without test compound
# Excerpt: Data are represented as mean+/−SEM with statistical significance by paired student's t-test (n=4, p<0.05).
# The observed increase in LC3-positive autophagosomes could result, in principle, from either an increased flux through the autophagy pathway or decreased autophagosome degradation (Pankiv, S., et al. J Biol Chem 282, 24131-24145 (2007); Kamada, Y., et al. J Cell Biol 150, 1507-1513 (2000)). […] In order to ascertain an increase in autophagic flux, cells were co-treated with LNK-754-TS and an inhibitor of autophagosome-lysosome fusion, bafilomycin A1 (10 nM). Bafilomycin treatment alone caused a 100% increase in the amount of LC3-II, consistent with the fact that it inhibits autophagosome degradation (FIG. 8c).
# as §5
smiles,measurement,setting,value
"C#Cc1cccc(-c2cc(=O)n(C)c3ccc([C@](O)(c4ccc(Cl)cc4)c4cncn4C)cc23)c1 [LNK-754, (R)-6-[(4-chlorophenyl)-hydroxyl-(1-methyl-1-H-imidazol-5-yl)-methyl]-4-(3-ethynylphenyl)-1-methyl-2-(1H)-quinonlinone]",number of α-synuclein positive neurons,α-synuclein; 0.09 mg/kg,significantly lowered
same,number of α-synuclein positive neurons,α-synuclein; 0.9 mg/kg,significantly lowered
same,number of α-synuclein positive neurons in the brain,"α-synuclein; 9 mg/kg PO BID 3 months, higher-dose trial (FIG. 2A)",significantly lower
same,number of α-synuclein positive neurons in the brain,"α-synuclein; 45 mg/kg PO BID 3 months, higher-dose trial (FIG. 2A)",did not significantly lower; also recorded: not found to significantly lower
same,number of α-synuclein positive neurons in the brain,"α-synuclein; lower doses, 0.09 mg/kg to 9 mg/kg (FIGS. 2A and 2B)",significant reduction
same,levels of α-synuclein in the hippocampus,α-synuclein,decrease
same,α-synuclein inclusions vs. transgenic animals administered vehicle alone,α-synuclein,fewer
same,GGTase inhibitory activity,GGTase [1],little to no
same,GGTI/FTI,GGTase [2]; H-Ras substrates,580
same,GGTI/FTI,GGTase [2]; K-Ras substrates,40.11
same,continuous serum level at which significant inhibition of tumor growth was seen,[3]; 7 day treatment,above 100 ng/mL
same,inhibition of Ras farnesylation at which significant inhibition of tumor growth was seen,[3]; tumor tissue,at least 50%
"Cn1cncc1[C@@](N)(c1ccc(Cl)cc1)c1ccc2c(c1)c(-c1cccc(Cl)c1)cc(=O)n2C [Zarnestra®, (R)-6-(Amino(4-chlorophenyl)(1-methyl-1H-imidazol-5-yl)methyl)-4-(3-chlorophenyl)-1-methyl-2(1H)-quinolinone, reference compound]",levels of α-synuclein in the hippocampus,α-synuclein,decrease
same,α-synuclein inclusions vs. transgenic animals administered vehicle alone,α-synuclein,fewer
same,t1/2z,[4]; Blood,1.31 h
same,AUC(0-t),[4]; Brain,44.50 ng·h/g
same,AUC(0-[…]),[4]; Brain,86.86 ng·h/g
same,t1/2z,[4]; Brain,8.10 h
same,LC3 mRNA level,LC3 mRNA,also works; also recorded: upregulated
same,LC3 mRNA level,LC3 mRNA; listed as tipifarnib,increased
same,punctate LC3 immunostaining (number of LC3-positive puncta),LC3,distinct increase
same,punctate LC3 immunostaining (number of LC3-positive puncta),LC3; listed as tipifarnib,increased
same,mRNA levels of a set of autophagy-related genes,Atg1,unaffected
same,GGTase inhibitory activity,GGTase [5],little to no
"CO/C1=C\C(C)=C\[C@@H](C)[C@@H](O)[C@@H](C)C/C(C)=C/C=C/[C@H](OC)[C@@H]([C@@H](C)[C@@H](O)[C@H](C)[C@@]2(O)C[C@@H](O)[C@H](C)[C@@H](C(C)C)O2)OC1=O [bafilomycin A1, reference compound]",increase in the amount of LC3-II,LC3-II,100%
